Experimental data: ChEMBL document CHEMBL1201862, “PubChem BioAssay data set” (2004)
Calls of active or inactive are those of the source.

Columns and labels:
[1] = luciferase reporter signal reduction – luminescence, H4-C neuroglioblastoma cells, dose response (AID 2458); assay type: functional, cell-based;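 note: H4 neuroglioblastoma cells stably carrying a luciferase reporter gene fusion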
[2] = cells; assay type: functional, cell-based
[3] = inhibitors of firefly luciferase expression or activity, dose response, H4 neuroglioma cells, luminescence (AID 1990); assay type: functional, cell-based
[4] = Luminescence Cell-Based Dose Response HTS to Identify Inhibitors of 5'UTR Stem-Loop Driven Prion Protein mRNA Translation in H4 Neuroglioblastoma Cells. [Related pubchem assays: 1827 (Project Summary), 1813 (Primary HTS)]; assay type: functional
[5] = inhibitors of SNCA 5'UTR-driven translation, confirmation, luminescence, H4 neuroglioblastoma cells, dose confirmation (AID 2454); assay type: functional, cell-based;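 note: H4 neuroglioblastoma cells carrying an alpha-synuclein 5'UTR luciferase reporter; potency for inhibition of the luciferase signal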
[6] = inhibitors of SNCA 5'UTR-driven reporter translation, confirmation, H4 neuroglioma cells, luminescence (AID 1988); assay type: functional, cell-based
[7] = biological target: T1, Sphingosine 1-phosphate receptor 4 (Homo sapiens, UniProt O95977); assay: Late-stage fluorescence dose response cell-based assay to identify agonists of the Sphingosine 1-Phosphate Receptor 4 (S1P4): purchased compounds EC50. [Related pubchem assays (depositor defined):AID1509, AID1523, AID1563, AID1686, AID1701, AID1801]; assay type: functional
T1 sequence (O95977 whole entry): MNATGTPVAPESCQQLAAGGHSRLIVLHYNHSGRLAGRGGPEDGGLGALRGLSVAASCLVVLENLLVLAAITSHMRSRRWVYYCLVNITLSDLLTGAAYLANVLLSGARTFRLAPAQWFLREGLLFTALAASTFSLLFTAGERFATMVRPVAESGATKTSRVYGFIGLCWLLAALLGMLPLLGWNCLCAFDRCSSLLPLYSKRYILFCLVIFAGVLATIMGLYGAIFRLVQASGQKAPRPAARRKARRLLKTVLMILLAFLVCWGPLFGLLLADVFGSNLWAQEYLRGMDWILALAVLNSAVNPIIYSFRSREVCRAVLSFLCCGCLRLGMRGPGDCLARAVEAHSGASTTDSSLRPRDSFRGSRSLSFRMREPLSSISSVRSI

[8] = biological target: Hexokinase (Trypanosoma brucei, UniProt Q38C41); assay: Confirmation assay for inhibitors of Trypanosoma brucei hexokinase 1-Analogue-first series. [Related pubchem assays (depositor defined):AID1430, AID1632, AID2516, AID2560, AID2579, AID2600, AID449725, AID492951]; assay type: functional
[9] = biological target: T2, Hexokinase HKDC1 (Homo sapiens, UniProt Q2TB90); assay: HKDC1 hexokinase activators, dose response, biochemical, W721R variant (AID 504730); assay type: functional
T2 sequence (Q2TB90 whole entry): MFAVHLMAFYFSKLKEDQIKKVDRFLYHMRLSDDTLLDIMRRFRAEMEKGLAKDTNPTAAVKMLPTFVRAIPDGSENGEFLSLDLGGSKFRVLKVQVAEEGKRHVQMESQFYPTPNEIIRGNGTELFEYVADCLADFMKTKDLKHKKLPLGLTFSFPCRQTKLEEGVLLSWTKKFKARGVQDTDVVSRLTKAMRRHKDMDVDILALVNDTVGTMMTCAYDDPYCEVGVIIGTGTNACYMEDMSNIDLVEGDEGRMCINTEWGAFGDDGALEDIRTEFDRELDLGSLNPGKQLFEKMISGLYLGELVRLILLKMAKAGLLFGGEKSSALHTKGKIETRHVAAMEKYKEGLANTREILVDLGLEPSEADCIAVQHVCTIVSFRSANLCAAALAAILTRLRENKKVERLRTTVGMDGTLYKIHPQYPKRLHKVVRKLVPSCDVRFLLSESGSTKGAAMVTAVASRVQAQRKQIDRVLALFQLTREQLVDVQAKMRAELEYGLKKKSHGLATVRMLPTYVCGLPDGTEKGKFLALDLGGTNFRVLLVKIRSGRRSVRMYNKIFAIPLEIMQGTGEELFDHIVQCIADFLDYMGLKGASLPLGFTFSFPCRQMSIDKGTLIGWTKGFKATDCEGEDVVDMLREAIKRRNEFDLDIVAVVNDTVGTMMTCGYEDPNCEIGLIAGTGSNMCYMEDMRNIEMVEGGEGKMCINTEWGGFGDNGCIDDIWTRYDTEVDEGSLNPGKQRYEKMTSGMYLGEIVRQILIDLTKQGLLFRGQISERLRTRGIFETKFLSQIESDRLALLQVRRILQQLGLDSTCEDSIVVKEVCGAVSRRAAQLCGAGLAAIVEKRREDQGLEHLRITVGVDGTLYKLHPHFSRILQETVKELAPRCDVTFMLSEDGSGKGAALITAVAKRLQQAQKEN

[10] = biological target: Lysosomal acid glucosylceramidase (Homo sapiens, UniProt P04062); assay: Dose response cell-based high throughput screening assay to identify enhancers of beta-glucosidase activity. [Related pubchem assays: 784 ]; assay type: functional
[11] = biological target: T3, Heat shock factor protein 1 (Mus musculus, UniProt P38532); assay: HSF1 potentiators in luciferase reporter cells, confirmation, cell-based, NIH3T3, luminescence, dose retest (AID 435004); assay type: functional;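 note: stress induced by proteasome inhibitor MG132 added 30 min after compound; luciferase reporter driven by HSF1 response element in NIH3T3 cells; actives raise luminescence as potentiators of the MG132 stress response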
T3 sequence (P38532 whole entry): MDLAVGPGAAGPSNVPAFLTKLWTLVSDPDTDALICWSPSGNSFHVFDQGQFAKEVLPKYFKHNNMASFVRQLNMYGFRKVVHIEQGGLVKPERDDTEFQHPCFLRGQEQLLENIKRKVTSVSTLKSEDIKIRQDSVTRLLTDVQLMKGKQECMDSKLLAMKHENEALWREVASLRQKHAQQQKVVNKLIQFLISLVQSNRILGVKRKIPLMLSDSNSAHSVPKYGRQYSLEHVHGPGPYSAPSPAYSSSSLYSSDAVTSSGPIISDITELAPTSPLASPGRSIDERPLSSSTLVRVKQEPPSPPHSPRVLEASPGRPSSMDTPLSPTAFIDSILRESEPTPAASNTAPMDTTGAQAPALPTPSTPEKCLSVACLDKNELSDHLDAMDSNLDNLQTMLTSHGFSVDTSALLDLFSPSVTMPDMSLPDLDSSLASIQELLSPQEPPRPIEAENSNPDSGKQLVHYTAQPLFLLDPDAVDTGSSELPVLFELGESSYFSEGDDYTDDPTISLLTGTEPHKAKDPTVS

[12] = cytotoxicity in HEK-293T cells, dose response, cytotoxicity control for BCR NF-kB inhibitor project, luminescence, B-cell screen hits (AID 489021); assay type: functional, cell-based;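 note: HEK-293T cells carrying an NF-kB luciferase reporter; cells exposed to compound for about 14 hours before viability readout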
[13] = biological target: Bcl-2-like protein 10 (Homo sapiens, UniProt Q9HD36); assay: displacers of TR3 peptide from Bcl-B, primary screen, selectivity assay for Bfl-1 inhibitor project, biochemical, fluorescence polarization, FITC-TR3 peptide (AID 748);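 note: fluorescence polarization from a fluorescein-labelled TR3 peptide binding purified Bcl-B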
Chain of Bcl-2-like protein 10 (Q9HD36 whole entry): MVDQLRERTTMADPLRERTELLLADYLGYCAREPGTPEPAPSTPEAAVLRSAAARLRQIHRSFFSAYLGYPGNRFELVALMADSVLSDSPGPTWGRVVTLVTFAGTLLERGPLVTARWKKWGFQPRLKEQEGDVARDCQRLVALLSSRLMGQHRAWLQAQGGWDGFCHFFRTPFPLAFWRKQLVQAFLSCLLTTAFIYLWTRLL

Chain of Hexokinase (Q38C41 whole entry): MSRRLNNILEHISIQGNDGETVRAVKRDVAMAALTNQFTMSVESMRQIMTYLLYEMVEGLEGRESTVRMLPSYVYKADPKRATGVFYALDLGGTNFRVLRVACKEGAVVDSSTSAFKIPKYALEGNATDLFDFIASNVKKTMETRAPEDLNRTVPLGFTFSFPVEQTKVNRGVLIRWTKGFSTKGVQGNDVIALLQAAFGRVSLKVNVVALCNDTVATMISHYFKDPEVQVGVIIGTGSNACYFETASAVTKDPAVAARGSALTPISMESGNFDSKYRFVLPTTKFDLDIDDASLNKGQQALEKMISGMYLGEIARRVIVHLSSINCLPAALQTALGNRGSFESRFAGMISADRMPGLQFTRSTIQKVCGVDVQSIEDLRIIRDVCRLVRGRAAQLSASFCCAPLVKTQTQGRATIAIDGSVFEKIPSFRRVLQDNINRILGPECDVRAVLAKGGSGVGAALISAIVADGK
Chain of Lysosomal acid glucosylceramidase (P04062 whole entry): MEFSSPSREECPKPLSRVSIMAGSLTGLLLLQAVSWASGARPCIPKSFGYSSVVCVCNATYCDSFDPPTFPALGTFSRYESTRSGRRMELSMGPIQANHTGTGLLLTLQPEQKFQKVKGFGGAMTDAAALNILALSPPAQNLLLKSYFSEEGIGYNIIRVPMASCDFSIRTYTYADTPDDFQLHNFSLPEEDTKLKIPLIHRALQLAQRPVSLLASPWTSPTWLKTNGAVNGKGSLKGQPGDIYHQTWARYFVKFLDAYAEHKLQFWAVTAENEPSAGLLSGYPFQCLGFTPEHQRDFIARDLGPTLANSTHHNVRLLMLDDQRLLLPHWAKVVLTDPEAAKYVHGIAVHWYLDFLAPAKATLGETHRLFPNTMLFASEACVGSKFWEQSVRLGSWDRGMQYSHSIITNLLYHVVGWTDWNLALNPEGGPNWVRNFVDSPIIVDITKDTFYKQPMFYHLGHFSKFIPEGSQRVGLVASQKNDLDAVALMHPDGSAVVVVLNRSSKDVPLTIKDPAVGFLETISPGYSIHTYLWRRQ

**Q.** Which results are given for O=Cc1cn(Cc2ccc([N+](=O)[O-])cc2)c2ccccc12?
**A.** EC50 [1]: 1.25 µM (active); EC50 [2]: 466 nM (active); EC50 [3]: 5.79 µM (active); EC50 [4]: < 100 nM (active); EC50 [5]: 1.02 µM (active); EC50 [6]: 233 nM (active)

**Q.** Which EC50 [7] does the source give for Cc1cc(C)cc(OCCOc2ccc(C)nc2[N+](=O)[O-])c1 here?
**A.** > 50 µM (inactive)

**Q.** With O=c1c2cc(F)c(F)cc2sn1-c1ccccc1 as the compound, how does the IC50 [8] read?
**A.** 2.23 µM (active)

**Q.** For Cc1cc(Oc2ccc(C(C)(C)C)cc2)nc(N2CCOCC2)n1, which EC50 [9] is on record?
**A.** > 80 µM (inactive)

**Q.** With C/N=C1/SC(CC(=O)Nc2cccc(C(F)(F)F)c2)C(=O)N1C (centres undefined) as the compound, how does the EC50 [10] read?
**A.** > 50 µM (not active)

**Q.** With Cc1ccc(OC(C)C(=O)Nc2cc(Cl)ccc2Cl)c([N+](=O)[O-])n1 (centres undefined) as the compound, how does the EC50 [7] read?
**A.** > 50 µM (inactive)

**Q.** Which EC50 [11] does the source give for COc1ccc(C(=O)n2nc(-c3ccc(Cl)cc3)nc2N)cc1OC here?
**A.** > 260 µM (inconclusive)

**Q.** What about the IC50 [12] of the same compound?
**A.** > 80 µM (inactive)

**Q.** With Cc1ccc(OCCC(=O)OCC(=O)Nc2ccc(Cl)cn2)cc1 as the compound, how does the IC50 [13] read?
**A.** 72.8 µM (inactive)
